From patent US6864287B1, “Derivatives of dicarboxylic acid having pharmaceutical properties” (Bayer Aktiengesellschaft, priority 1999, dated 2005)

How the values were obtained:
arteria saphena = assay: Vasorelaxant action in vitro (phenylephrin-contracted artery rings); design: species or system Rabbits; details: Oryctolagus cuniculus; rabbit arteria saphena rings, contraction induced by phenylephrin; read-out: IC50 (concentration reducing the phenylephrin-induced contraction by 50%)
Protocol: Vaso Relaxant Action in Vitro
Rabbits are anaesthetized by intravenous injection of thiopental sodium […] (about 50 mg/kg) and exsanguinated. The arteria saphena is removed and divided into 3 mm wide rings. The rings are individually mounted on in each case one triangular pair of hooks, open at the end, made of 0.3 mm strong special wire (Remanium®). Under a pretension, each ring is transferred into 5 ml organ baths containing a warm, carbogen-aerated Krebs-Henseleit solution at 37° C. having the following composition (mM): NaCl: 119; KCl: 4.8; CaCl2×2H2O: 1; MgSO4×7H2O: 1.4; KH2PO4: 1.2; NaHCO3: 25; glucose: 10; bovine serum albumin: 0.001%. The contractility is detected using Statham UC2 cells, amplified and digitalized by means of A/D converters (DAS-1802 HC, Keithley Instruments Munich), and recorded in parallel on linear recorders. Contractions are induced by addition of phenylephrin.
After several (in general 4) control cycles, the substance to be investigated is added in each further passage in increasing dosage, and the height of the contraction achieved under the influence of the test substance is compared with the height of the contraction achieved in the last preliminary passage. From this, the concentration which is necessary in order to reduce the contraction achieved in the preliminary control by 50% (IC50) is calculated. The standard administration volume is 5 μl. The proportion of DMSO in the bath solution corresponds to 0.1%.

Heme-containing sGC = biological target: T1, Heme-containing sGC (Rattus norvegicus, UniProt P20595); assay: Stimulation of recombinant soluble guanylate cyclase (sGC) in vitro, heme-containing enzyme; format: biochemical
T1 construct: made in house; host or cells: baculovirus/Sf9 insect cells
T1 sequence (P20595 1-619): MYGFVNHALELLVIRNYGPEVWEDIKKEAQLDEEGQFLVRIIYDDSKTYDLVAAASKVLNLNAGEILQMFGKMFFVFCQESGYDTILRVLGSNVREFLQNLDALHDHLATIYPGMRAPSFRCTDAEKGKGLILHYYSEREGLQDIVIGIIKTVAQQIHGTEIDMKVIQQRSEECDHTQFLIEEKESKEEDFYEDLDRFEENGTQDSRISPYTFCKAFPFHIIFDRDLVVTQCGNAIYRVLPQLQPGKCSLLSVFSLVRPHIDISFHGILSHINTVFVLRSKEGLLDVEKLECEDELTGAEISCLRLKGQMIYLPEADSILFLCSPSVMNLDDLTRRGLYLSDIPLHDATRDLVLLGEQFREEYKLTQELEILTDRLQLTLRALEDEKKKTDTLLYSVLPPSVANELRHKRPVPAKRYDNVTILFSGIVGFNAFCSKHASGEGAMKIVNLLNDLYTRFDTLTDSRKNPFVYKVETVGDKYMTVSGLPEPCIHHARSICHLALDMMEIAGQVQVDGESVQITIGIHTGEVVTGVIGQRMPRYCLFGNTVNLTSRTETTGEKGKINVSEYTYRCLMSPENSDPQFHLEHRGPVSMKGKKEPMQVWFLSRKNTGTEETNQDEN
T1 sequence (P19686 1-690 partner): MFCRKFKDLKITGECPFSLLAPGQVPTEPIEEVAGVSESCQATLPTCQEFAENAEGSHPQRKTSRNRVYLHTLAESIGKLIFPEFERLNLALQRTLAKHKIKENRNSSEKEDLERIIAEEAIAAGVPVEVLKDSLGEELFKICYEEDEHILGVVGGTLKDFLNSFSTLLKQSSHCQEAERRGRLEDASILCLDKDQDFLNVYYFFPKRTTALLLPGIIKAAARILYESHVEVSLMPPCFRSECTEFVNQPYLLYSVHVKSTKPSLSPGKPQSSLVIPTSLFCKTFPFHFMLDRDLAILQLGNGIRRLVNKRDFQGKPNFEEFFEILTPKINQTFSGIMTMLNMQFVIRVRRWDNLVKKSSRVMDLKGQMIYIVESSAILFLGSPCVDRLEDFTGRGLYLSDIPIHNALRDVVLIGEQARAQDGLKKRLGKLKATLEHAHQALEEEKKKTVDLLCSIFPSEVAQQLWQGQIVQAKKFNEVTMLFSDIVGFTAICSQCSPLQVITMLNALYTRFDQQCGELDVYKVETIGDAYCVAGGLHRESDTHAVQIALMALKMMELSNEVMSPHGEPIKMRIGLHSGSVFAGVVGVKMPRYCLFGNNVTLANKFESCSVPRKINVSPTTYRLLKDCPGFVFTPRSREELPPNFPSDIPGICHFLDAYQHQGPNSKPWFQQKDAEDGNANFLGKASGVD
Protocol: (§1) Stimulation of Recombinant Soluble […] Cyclase (sGC) in Vitro
(§2) The investigation on the stimulation of recombinant soluble guanylate cyclase (sGC) and the compounds according to the invention with and without sodium nitroprusside and with and without the heme-dependent sGC inhibitor 1H-1,2,4-oxadiazole-(4,3a)-quinoxalin-1-one (ODQ) were carried out by the method described in detail in the following literature reference: M. Hoenicka, E. M. Becker, H. Apeler, T. Sirichoke, H. Schroeder. R Gerzer and J.-P. Stasch: Purified soluble guanylyl cyclase expressed in baculovirus/Sf9 system: stimulation by YC-1, nitric oxide, and carbon oxide. J. Mol, Med. 77 (1999): 14-23.
(§3) Activation of sGC by a test substance is stated as n-fold stimulation of basal activity.

Heme-free sGC = biological target: T2, Heme-free sGC (Rattus norvegicus, UniProt P20595); assay: Stimulation of recombinant soluble guanylate cyclase (sGC) in vitro, heme-free enzyme; format: biochemical
T2 construct: made in house; host or cells: baculovirus/Sf9 insect cells
T2 sequence (P20595 1-619): T1 sequence (P20595 1-619)
T2 sequence (P19686 1-690 partner): T1 sequence (P19686 1-690 partner)
Protocol: as §1, §2
Heme-free guanylate cyclase was obtained by adding Tween 20 to the sample buffer (final concentration 0.5%).
as §3

Cc1ccc(/C=C/C(CCCCC(=O)O)Cc2ccc(C(=O)O)cc2)c(OCc2ccccc2)c1 (centres unmarked) [Example 12] showed an IC50 (arteria saphena) of 112 nM.

N#Cc1ccc(CC(/C=C/c2ccccc2OCCCCCc2ccccc2)CCCCC(=O)O)cc1 (centres unmarked) [Example 13] showed an IC50 (arteria saphena) of 2600 nM.

For O=C(O)CCCCC(/C=C/c1ccccc1OCc1ccccc1Cl)Cc1ccc(C(=O)O)cc1 (centres unmarked) [Example 14], the IC50 (arteria saphena) was 8.7 nM.

O=C(O)CCCCC(/C=C/c1ccccc1OCCCCCc1ccccc1)Cc1ccc(C(=O)O)cc1 (centres unmarked) [Example 16] was tested, and the IC50 (arteria saphena) was 5 nM, the “Stimulation (n-fold), + ODQ (10 μM)” value (Heme-containing sGC; 0.1 μM Ex. 16) was 27 n-fold and the “Stimulation (n-fold), + ODQ (10 μM)” value (Heme-containing sGC; 1.0 μM Ex. 16) was 52 n-fold. For the same compound, the “Stimulation (n-fold), + ODQ (10 μM)” value (Heme-containing sGC; 10 μM Ex. 16) was 88 n-fold, the “Stimulation (n-fold), + SNP (0.1 μM)” value (Heme-containing sGC; 0.1 μM Ex. 16) was 14 n-fold and the “Stimulation (n-fold), + SNP (0.1 μM)” value (Heme-containing sGC; 1.0 μM Ex. 16) was 33 n-fold. For the same compound, the “Stimulation (n-fold), + SNP (0.1 μM)” value (Heme-containing sGC; 10 μM Ex. 16) was 29 n-fold, the “Stimulation (n-fold), Basal” value (Heme-containing sGC; 0.1 μM Ex. 16) was 4 n-fold and the “Stimulation (n-fold), Basal” value (Heme-containing sGC; 1.0 μM Ex. 16) was 9 n-fold. For the same compound, the “Stimulation (n-fold), Basal” value (Heme-containing sGC; 10 μM Ex. 16) was 19 n-fold, the “Stimulation (n-fold), + ODQ (10 μM)” value (Heme-free sGC; 0.1 μM Ex. 16) was 12 n-fold and the “Stimulation (n-fold), + ODQ (10 μM)” value (Heme-free sGC; 1.0 μM Ex. 16) was 94 n-fold. The “Stimulation (n-fold), + ODQ (10 μM)” value (Heme-free sGC; 10 μM Ex. 16) was 291 n-fold, the “Stimulation (n-fold), Basal” value (Heme-free sGC; 0.1 μM Ex. 16) was 11 n-fold and the “Stimulation (n-fold), Basal” value (Heme-free sGC; 1.0 μM Ex. 16) was 54 n-fold. For the same compound, the “Stimulation (n-fold), Basal” value (Heme-free sGC; 10 μM Ex. 16) was 204 n-fold.

Work on O=C(O)CCCCC(/C=C/c1ccccc1CCc1ccccc1)Cc1ccc(C(=O)O)cc1 (centres unmarked) [Example 23] yielded an IC50 (arteria saphena) of 26 nM.

For O=C(O)CCCCC(/C=C/c1ccccc1OCCCOc1ccccc1)Cc1ccc(C(=O)O)cc1 (centres unmarked) [Example 24], the IC50 (arteria saphena) was 6200 nM.

For CC(C)(C)c1ccc(COc2ccccc2/C=C/C(CCCCC(=O)O)Cc2ccc(C(=O)O)cc2)cc1 (centres unmarked) [Example 34], the IC50 (arteria saphena) was 0.35 nM.

In the case of CCc1ccc(COc2ccccc2/C=C/C(CCCCC(=O)O)Cc2ccc(C(=O)O)cc2)cc1 (centres unmarked) [Example 35], the IC50 (arteria saphena) is reported as 1.7 nM.

O=C(O)CCCCC(CCc1ccccc1CCc1ccccc1)Cc1ccc(C(=O)O)cc1 (centres unmarked) [Example 40] gave an IC50 (arteria saphena) of 41 nM.

O=C(O)CCCCC(CCc1ccccc1OCCCCCc1ccccc1)Cc1ccc(C(=O)O)cc1 (centres unmarked) [Example 41] gave an IC50 (arteria saphena) of 2.8 nM.

With O=C(O)CCCCC(CCCc1cccc(OCCCCc2ccccc2)c1)Cc1ccc(C(=O)O)cc1 (centres unmarked) [Example 44, 6-(4Carboxybenzyl)-9-(3-(4-phenylbutoxy)phenyl)nonanoic acid] the IC50 (arteria saphena) was 7800 nM.

In the case of O=C(O)CCCCC(/C=C/c1ccccc1OCCCCCc1ccccc1)Cc1ccccc1C(=O)O (centres unmarked) [Example 60], the IC50 (arteria saphena) is reported as 608 nM.

O=c1onc2cnc3ccccc3n12 [ODQ, 1H-1,2,4-oxadiazole-(4,3a)-quinoxalin-1-one, reference compound] was tested, and the “Stimulation (n-fold), ODQ alone” value (Heme-containing sGC; ODQ 10 μM, no Ex. 16 (0 μM)) was 1 n-fold and the “Stimulation (n-fold), ODQ alone” value (Heme-free sGC; ODQ 10 μM, no Ex. 16 (0 μM)) was 1 n-fold.
